Assay results from ChEMBL document CHEMBL1153217, “Antitubercular potential of some semisynthetic analogues of phytol” (Bioorg Med Chem Lett, 2010).
≈ marks a conversion by molar mass, not a printed value. Calls of active or inactive are those of the source. The calls are words filed in the database; no cut-off is given here.

Experiments:
[1] = system: Mycobacterium tuberculosis; assay: Antitubercular activity against Mycobacterium tuberculosis H37Rv by BACTEC460 radiometric susceptibility assay; type: functional
[2] = system: Mycobacterium tuberculosis; assay: Antitubercular activity against Mycobacterium tuberculosis H37Rv at 500 ug/ml by BACTEC460 radiometric susceptibility assay; type: functional, organism-based
Mus musculus [3] = assay: Toxicity in Swiss albino mouse assessed as total WBC level 300 mg/kg, po (reference value: 10.71 +/- 2.47 thousand/mm'3); type: organism-based; design: dose 300 mg/kg, route oral; settings: in vivo
Mus musculus [4] = assay: Toxicity in Swiss albino mouse assessed as total haemoglobin level 300 mg/kg, po (reference value: 7.54 +/- 1.05 g/dl); type: organism-based; design: dose 300 mg/kg, route oral; settings: in vivo
Mus musculus [5] = assay: Toxicity in Swiss albino mouse assessed as total RBC count 5 mg/kg, po (reference value: 6.24 +/- 0.51 millions/mm'3); type: organism-based; design: dose 5 mg/kg, route oral; settings: in vivo
Mus musculus [6] = assay: Toxicity in Swiss albino mouse assessed as total haemoglobin level 50 mg/kg, po (reference value: 7.54 +/- 1.05 g/dl); type: organism-based; design: dose 50 mg/kg, route oral; settings: in vivo
Mus musculus [7] = assay: Toxicity in Swiss albino mouse assessed as total SGOT level 50 mg/kg, po (reference value: 8.13 +/- 0.79 U/L); type: organism-based; design: dose 50 mg/kg, route oral; settings: in vivo
Mus musculus [8] = assay: Toxicity in Swiss albino mouse assessed as total SGPT level 300 mg/kg, po (reference value: 8.13 +/- 0.79U/L); type: organism-based; design: dose 300 mg/kg, route oral; settings: in vivo
Mus musculus [9] = assay: Toxicity in Swiss albino mouse assessed as total serum total cholesterol level 5 mg/kg, po (reference value: 43.25 +/- 4.04 mg/dl); type: organism-based; design: dose 5 mg/kg, route oral; settings: in vivo
Mus musculus [10] = assay: Toxicity in Swiss albino mouse assessed as body weight at 5 mg/kg, po (reference value: 23.56+/-1.547 g); type: organism-based; design: dose 5 mg/kg, route oral; settings: in vivo
Mus musculus [11] = assay: Toxicity in Swiss albino mouse assessed as total serum total cholesterol level 300 mg/kg, po (reference value: 43.25 +/- 4.04 mg/dl); type: organism-based; design: dose 300 mg/kg, route oral; settings: in vivo
Mus musculus [12] = assay: Toxicity in Swiss albino mouse assessed as total SGOT level 5 mg/kg, po (reference value: 8.13 +/- 0.79 U/L); type: organism-based; design: dose 5 mg/kg, route oral; settings: in vivo
Mus musculus [13] = assay: Toxicity in Swiss albino mouse assessed as total RBC count 50 mg/kg, po (reference value: 6.24 +/- 0.51 millions/mm'3); type: organism-based; design: dose 50 mg/kg, route oral; settings: in vivo
Mus musculus [14] = assay: Toxicity in Swiss albino mouse assessed as total WBC level 5 mg/kg, po (reference value: 10.71 +/- 2.47 thousand/mm'3); type: organism-based; design: dose 5 mg/kg, route oral; settings: in vivo
Mus musculus [15] = assay: Toxicity in Swiss albino mouse assessed as total SGPT level 50 mg/kg, po (reference value: 8.13 +/- 0.79 U/L); type: organism-based; design: dose 50 mg/kg, route oral; settings: in vivo
Mus musculus [16] = assay: Toxicity in Swiss albino mouse assessed as total serum triglyceride level 50 mg/kg, po (reference value: 72.43 +/- 8.40 mg/dl); type: organism-based; design: dose 50 mg/kg, route oral; settings: in vivo
Mus musculus [17] = assay: Toxicity in Swiss albino mouse assessed as total WBC level 50 mg/kg, po (reference value: 10.71 +/- 2.47 thousand/mm'3); type: organism-based; design: dose 50 mg/kg, route oral; settings: in vivo
Mus musculus [18] = assay: Toxicity in Swiss albino mouse assessed as total SGPT level 5 mg/kg, po (reference value: 8.13 +/- 0.79 U/L); type: organism-based; design: dose 5 mg/kg, route oral; settings: in vivo
Mus musculus [19] = assay: Toxicity in Swiss albino mouse assessed as total haemoglobin level 5 mg/kg, po (reference value: 7.54 +/- 1.05 g/dl); type: organism-based; design: dose 5 mg/kg, route oral; settings: in vivo
Mus musculus [20] = assay: Toxicity in Swiss albino mouse assessed as total serum creatinine level 5 mg/kg, po (reference value: 0.71 +/- 0.14 mg/dl); type: organism-based; design: dose 5 mg/kg, route oral; settings: in vivo
Mus musculus [21] = assay: Toxicity in Swiss albino mouse assessed as total serum creatinine level 50 mg/kg, po (reference value: 0.71 +/- 0.14 mg/dl); type: organism-based; design: dose 50 mg/kg, route oral; settings: in vivo
Mus musculus [22] = assay: Toxicity in Swiss albino mouse assessed as total serum triglyceride level 300 mg/kg, po (reference value: 72.43 +/- 8.40 mg/dl); type: organism-based; design: dose 300 mg/kg, route oral; settings: in vivo
Mus musculus [23] = assay: Toxicity in Swiss albino mouse assessed as total serum triglyceride level 5 mg/kg, po (reference value: 72.43 +/- 8.40 mg/dl); type: organism-based; design: dose 5 mg/kg, route oral; settings: in vivo
Mus musculus [24] = assay: Toxicity in Swiss albino mouse assessed as body weight at 50 mg/kg, po (reference value: 23.56+/-1.547 g); type: organism-based; design: dose 50 mg/kg, route oral; settings: in vivo
Mus musculus [25] = assay: Toxicity in Swiss albino mouse assessed as total SGOT level 300 mg/kg, po (reference value: 8.13 +/- 0.79 U/L); type: organism-based; design: dose 300 mg/kg, route oral; settings: in vivo
Mus musculus [26] = assay: Toxicity in Swiss albino mouse assessed as total serum creatinine level 300 mg/kg, po (reference value: 0.71 +/- 0.14 mg/dl); type: organism-based; design: dose 300 mg/kg, route oral; settings: in vivo
Mus musculus [27] = assay: Toxicity in Swiss albino mouse assessed as total serum total cholesterol level 50 mg/kg, po (reference value: 43.25 +/- 4.04 mg/dl); type: organism-based; design: dose 50 mg/kg, route oral; settings: in vivo
Mus musculus [28] = assay: Toxicity in Swiss albino mouse assessed as body weight at 300 mg/kg, po (reference value: 23.56+/-1.547 g); type: organism-based; design: dose 300 mg/kg, route oral; settings: in vivo
Mus musculus [29] = assay: Toxicity in Swiss albino mouse assessed as total RBC count 300 mg/kg, po (reference value: 6.24 +/- 0.51 millions/mm'3); type: organism-based; design: dose 300 mg/kg, route oral; settings: in vivo

Compound: C/C(=C\C=N\O)CCCC(C)CCCC(C)CCCC(C)C (stereo unspecified)
- MIC [1]: 25 µg/mL (≈ 80.8 µM)

Compound: CC(C)CCCC(C)CCCC(C)CCCC1(C)OC1CO (stereo unspecified)
- MIC [2]: inactive

Compound: CO[C@H]1/C=C/O[C@@]2(C)Oc3c(C)c(O)c4c(O)c(c(/C=N/N5CCN(C)CC5)c(O)c4c3C2=O)NC(=O)/C(C)=C\C=C\[C@H](C)[C@H](O)[C@@H](C)[C@@H](O)[C@@H](C)[C@H](OC(C)=O)[C@@H]1C [RIFAMPIN]
- MIC [1]: 2 µg/mL (≈ 2.43 µM)

Compound: CCOC(=O)CO/N=C/C=C(\C)CCCC(C)CCCC(C)CCCC(C)C (stereo unspecified)
- MIC [1]: 500 µg/mL (≈ 1260 µM)

Compound: CC(=O)OC/C=C(\C)CCCC(C)CCCC(C)CCCC(C)C (stereo unspecified)
- MIC [2]: inactive

Compound: CN[C@@H]1[C@H](O[C@H]2[C@H](O[C@H]3[C@H](O)[C@@H](O)[C@H](N=C(N)N)[C@@H](O)[C@@H]3N=C(N)N)O[C@@H](C)[C@]2(O)C=O)O[C@@H](CO)[C@H](O)[C@H]1O [STREPTOMYCIN]
- MIC [1]: 2 µg/mL (≈ 3.44 µM)

Compound: C/C(=C\CN=[N+]=[N-])CCCC(C)CCCC(C)CCCC(C)C (stereo unspecified)
- MIC [2]: inactive

Compound: C/C(=C\COC=O)CCCC(C)CCCC(C)CCCC(C)C (stereo unspecified)
- MIC [1]: 500 µg/mL (≈ 1540 µM)

Compound: C/C(=C\CO)CCCC(C)CCCC(C)CCCC(C)C (stereo unspecified)
- MIC [1]: 100 µg/mL (≈ 337 µM)

Compound: C/C(=C\COC/C=C(\C)CCCC(C)CCCC(C)CCCC(C)C)CCCC(C)CCCC(C)CCCC(C)C (stereo unspecified)
- MIC [2]: inactive

Compound: CCOC(=O)/C=C/CO/N=C/C=C(\C)CCCC(C)CCCC(C)CCCC(C)C (stereo unspecified)
- Activity (Mus musculus [3]): 14240 /mm3
- Activity (Mus musculus [4]): 5.55 g/dL
- Activity (Mus musculus [5]): 5980000 /mm3
- Activity (Mus musculus [6]): 10.09 g/dL
- Activity (Mus musculus [7]): 35.44 U/L
- Activity (Mus musculus [8]): 11.36 U/L
- Activity (Mus musculus [9]): 57.67 mg/dL
- MIC [1]: 15.6 µg/mL (≈ 37 µM)
- Activity (Mus musculus [10]): 25.41 g
- Activity (Mus musculus [11]): 62.27 mg/dL
- Activity (Mus musculus [12]): 28.03 U/L
- Activity (Mus musculus [13]): 6580000 /mm3
- Activity (Mus musculus [14]): 14450 /mm3
- Activity (Mus musculus [15]): 10.06 U/L
- Activity (Mus musculus [16]): 71.9 mg/dL
- Activity (Mus musculus [17]): 13460 /mm3
- Activity (Mus musculus [18]): 11.15 U/L
- Activity (Mus musculus [19]): 6.41 g/dL
- Activity (Mus musculus [20]): 0.61 mg/dL
- Activity (Mus musculus [21]): 0.59 mg/dL
- Activity (Mus musculus [22]): 68.95 mg/dL
- Activity (Mus musculus [23]): 84.31 mg/dL
- Activity (Mus musculus [24]): 25.39 g
- Activity (Mus musculus [25]): 41.73 U/L
- Activity (Mus musculus [26]): 1.2 mg/dL
- Activity (Mus musculus [27]): 54.91 mg/dL
- Activity (Mus musculus [28]): 20.56 g
- Activity (Mus musculus [29]): 5140000 /mm3

Compound: COc1cc(/C=C/C(O)=C/C(=O)/C=C/c2ccc(OC/C=C(\C)CCCC(C)CCCC(C)CCCC(C)C)cc2)ccc1OC/C=C(\C)CCCC(C)CCCC(C)CCCC(C)C (stereo unspecified)
- MIC [2]: inactive

Compound: C/C(=C\C=O)CCCC(C)CCCC(C)CCCC(C)C (stereo unspecified)
- MIC [1]: 50 µg/mL (≈ 170 µM)

Compound: C/C(=C\CBr)CCCC(C)CCCC(C)CCCC(C)C (stereo unspecified)
- MIC [2]: inactive
